Measurements published in US20250160332A1, “HERBICIDAL COMBINATIONS AND A METHOD FOR CONTROLLING UNDESIRED VEGETATION” (UPL MAURITIUS LIMITED, priority 2022, published 2025).

Tests used:
Amaranthus hybridus = test: Post-emergence herbicidal activity, efficacy on Amaranthus hybridus (Colby method); format: in vivo
Experimental: (§1) The following products were used for evaluating the weed control efficacy of present herbicidal combinations.
(§2) Methodology: Trials were carried out to evaluate the efficacy of the combinations comprising L-glufosinate ammonium and additional herbicides on Amaranthus genus weeds.
(§3) The soil used was sandy clay loam-sand: 68.0%; silt: 8.0%; clay: 24.0%.
(§4) All treatments were in 3 replications per treatment with a spray volume of 150 L/ha.
(§5) Efficacy Evaluation: The expected efficacy of the combination comprising L-glufosinate ammonium and additional herbicides was calculated using the well-established Colby method.
In the Colby method, the expected (or predicted) response of a combination of herbicides is calculated by taking the product of the observed response for each individual component of the combination when applied alone, divided by 100, and subtracting this value from the sum of the observed response for each component when applied alone. An unexpected enhancement in efficacy of the combination is then determined by comparing the observed response of the combination to the expected (or predicted) response as calculated from the observed response of each individual component alone. If the observed response of the combination is greater than the expected (or predicted) response, or stated conversely, if the difference between the observed and expected response is greater than zero, then the combination is said to be synergistic or unexpectedly effective (Colby, S. R., Weeds, 1967(15), p. 20-22). The Colby method requires only a single dose of each herbicide applied alone and the mixture of both doses. The formula used to calculate the expected efficacy (EE) which was compared with the observed efficacy (OE) to determine the efficacy of the present disclosure is explained herein:
The expected efficacy for a combination of two active ingredients is as follows:
The expected efficacy for a combination of three active ingredients is as follows:
[formula] • wherein, • A=Observed efficacy of active ingredient A at the same concentration as used in the mixture. • B=Observed efficacy of the active ingredient B at the same concentration as used in the mixture. • C=Observed efficacy of the active ingredient C at the same concentration as used in the mixture.
Experiment was conducted to assess the efficacy of herbicidal combination comprising L-glufosinate ammonium (glufosinate-P-ammonium) and saflufenacil to control the weed, Amaranthus hybridus.
The percentage efficacy was calculated after 3 days of applications (DAA). The target weed was Amaranthus hybridus, and the concentration of the herbicide and the results are recorded in Table 7.
Experiment was conducted to assess the efficacy of herbicidal combination comprising L-glufosinate ammonium, saflufenacil and triclopyr to control the weed Amaranthus hybridus.
The percentage efficacy was calculated after 3 DAA. The target weed was Amaranthus hybridus, and the concentration of the herbicide and the results are recorded in Table 8.
Experiment was conducted to assess the efficacy of herbicidal combination comprising L-glufosinate ammonium, saflufenacil and 2,4-D Choline to control the weed, Amaranthus hybridus.
The percentage efficacy was calculated after 3 DAA. The target weed was Amaranthus hybridus, and the concentration of the herbicide and the results are recorded in Table 9.
Experiment was conducted to assess the efficacy of herbicidal combination comprising L-glufosinate ammonium and quizalofop-ethyl to control the weed, Amaranthus hybridus.
The percentage efficacy was calculated after 3 DAA and 14 DAA. The target weed was Amaranthus hybridus, and the concentration of the herbicide and the results are recorded in Table 10.
Experiment was conducted to assess the efficacy of herbicidal combination comprising L-glufosinate ammonium and quizalofop-p-tefuryl to control the weed, Amaranthus hybridus
The percentage efficacy was calculated after 3 DAA and 14 DAA.

Amaranthus viridis = test: Post-emergence herbicidal activity, efficacy on Amaranthus viridis (Colby method); format: in vivo
Experimental: as §1, §2, §3, §4, §5
In the Colby method, the expected (or predicted) response of a combination of herbicides is calculated by taking the product of the observed response for each individual component of the combination when applied alone, divided by 100, and subtracting this value from the sum of the observed response for each component when applied alone. An unexpected enhancement in efficacy of the combination is then determined by comparing the observed response of the combination to the expected (or predicted) response as calculated from the observed response of each individual component alone. […]
The percentage efficacy was calculated after 3 DAA and 7 DAA. The target weed was Amaranthus viridis, and the concentration of the herbicide and the results are recorded in Table 12. […]

## C[N+](C)(C)CCO.O=C([O-])COc1ccc(Cl)cc1Cl [2,4-D Choline]
Amaranthus hybridus; Table 9, 3 DAA, 228 g a.i./ha
  Observed efficacy (%) of 2,4-D Choline (228 g a.i./ha): 95%

## CS(=O)(=O)c1ccc(C(=O)C2C(=O)CCCC2=O)c([N+](=O)[O-])c1 [Mesotrione]
Amaranthus viridis; Table 12, 3 DAA
  Observed efficacy (%) of Mesotrione (100 g a.i./ha): 10%
Amaranthus viridis; Table 12, 7 DAA
  Observed efficacy (%) of Mesotrione (100 g a.i./ha): 30%

## CC(C)N(C)S(=O)(=O)NC(=O)c1cc(-n2c(=O)cc(C(F)(F)F)n(C)c2=O)c(F)cc1Cl [Saflufenacil]
Amaranthus hybridus; Table 7, 3 DAA
  Observed efficacy (%) of Saflufenacil (30 g a.i./ha): 50%
Amaranthus hybridus; Table 8, 3 DAA
  Observed efficacy (%) of Saflufenacil (30 g a.i./ha): 50%
Amaranthus hybridus; Table 9, 3 DAA
  Observed efficacy (%) of Saflufenacil (30 g a.i./ha): 50%

## O=C(O)COc1nc(Cl)c(Cl)cc1Cl [Triclopyr]
Amaranthus hybridus; Table 8, 3 DAA, 228 g a.i./ha
  Observed efficacy (%) of Triclopyr (228 g a.i./ha): 95%

## CCOC(=O)C(C)Oc1ccc(Oc2cnc3cc(Cl)ccc3n2)cc1 (centres unmarked) [quizalofop-ethyl, Quizalofop-ethyl]
Amaranthus hybridus; Table 10, 3 DAA
  Observed efficacy (%) of quizalofop-ethyl (25 g a.i./ha): 0%
Amaranthus hybridus; Table 10, 14 DAA
  Observed efficacy (%) of quizalofop-ethyl (25 g a.i./ha): 0%

## C[C@@H](Oc1ccc(Oc2cnc3cc(Cl)ccc3n2)cc1)C(=O)OCC1CCCO1 (some centres unmarked) [quizalofop-p-tefuryl, Quizalofop-p-tefuryl]
Amaranthus hybridus; Table 11, 3 DAA
  Observed efficacy (%) of quizalofop-p-tefuryl (25 g a.i./ha): 0%
Amaranthus hybridus; Table 11, 14 DAA
  Observed efficacy (%) of quizalofop-p-tefuryl (25 g a.i./ha): 0%
